Reference: patent publication US20230241000A1, “GSK3 INHIBITOR-LOADED NANO FORMULATIONS AS A CANCER IMMUNOTHERAPEUTIC” (The Regents of the University of California, priority 2020, published 2023)

What was measured:
GSK3 = settings: values provided by chemical vendors (Cayman Chemical, Selleck Chemicals); cited from earlier work
[1] = test system: CD8+ T-cells in MC38 tumors; assay: Flow cytometry of tumor-infiltrating CD8+ T-cells in MC38 tumors; format: in vivo, C57BL/6 mice
Excerpt: In order to address the change in the immunological landscape with treatment, we asked whether sAZD1080 could impact the immune parameters that underpin treatment efficacy for immune checkpoint blocking antibodies. These include the CD8^+ cell number, the abundance of PD-1 expression on these cells, perforin release and the generation of cancer cell death, as reflected by activated caspase 3. For the first analysis, tumor cell digests were used to assess the number of CD8^+/CD107a^+/granzyme B^+ lymphocytes by flow cytometry (14, 30). […] In order to assess the status of PD-1 expression on CD8+ cells, flow cytometry was used to assess the % of […] cells in the tumor digests (14, 31).
Tumors were harvested from MC38 mice after sacrifice. Tumors larger than 100 mm^3 were divided in two, with one half preserved for histology and the other half used to conduct flow cytometry. To prepare samples for flow cytometry, tumor chunks of 2-3 mm^3 were incubated in an enzyme cocktail (1 mg/mL collagenase type IV, 2000 U DNase type IV, 0.1 mg/mL hyaluronidase type V in 1×HBSS) for 1 hour, and the digests passed through a 70 μm nylon filter. Cells were pelleted and washed in HBSS.
Cells were diluted in cell staining buffer, pelleted by centrifuging at 350×g for 5 minutes, and washed twice. […]

MC38 colon cancer = assay: MC38 syngeneic colon cancer model, subcutaneous tumor growth; format: in vivo, C57BL/6 mice
Experimental: Treatment was repeated every three days for a total of three administrations. Mice were sacrificed four days after the final treatment. The study was executed as two separate experiments, using animal group sizes of n=6 and n=9, respectively. […] The first set of analyses was performed on the tumor volume growth curves (FIG. 5, panel A), impact on final tumor volumes (FIG. 5, panel B) and tumor weight (FIG. 5, panel C) at the time of sacrifice.
MC38 cells, stably transfected with a luciferase vector, were inoculated into the right flank of C57BL/6 mice, using 0.7×10^6 cells in 40% Matrigel 1×PBS solution. Tumors were allowed to grow to a size of ˜50 mm^3 prior to the initiation of treatment, approximately 14 days after initial inoculation. Mice with outlier tumor sizes (either too small or too large) were excluded from further study. The remaining animals were randomly assigned to the different treatment groups. Mice were treated with three injections, set three days apart, and were sacrificed 4 days after the final treatment administration. […] Two separate experiments were performed, the first with n=6 mice per group and the second with n=9 animals.

[2] = Safety analysis in MC38 mice (animal weight, blood chemistry, organ H&E histology); format: in vivo, C57BL/6 mice; settings: serum at sacrifice
Experimental: While there is sparse literature on the use of AZD1080 in animal studies, this agent had to be discontinued in a phase I clinical trial in humans due to nephrotoxicity (15).
The histology preparation and staining of tumor tissue and mouse organs was performed in the Pathology Core Facility of the UCLA Jonsson Comprehensive Cancer Center. Tissues were fixed in 10% neutral-buffered formalin for 24 hours, then gradually dehydrated in 25-75% ethanol solutions over 3 days. Tissues were embedded in paraffin, sectioned at 4 μm thickness, and stained by anti-CD8, anti-cleaved caspase 3, anti-perforin, anti-PD-1, or haemotoxylin and eosin (H&E). Slides were digitally scanned for analysis using Aperio ImageScope software (Leica Biosystems, Buffalo Grove, Ill.). Four fields of view were analyzed per tumor at 20× magnification, with all positively stained cells counted within the field and averaged across fields. The investigator was blinded with respect to the animal groups to avoid bias during counting. Fields of view were chosen to avoid the tumor periphery and processing artifacts.
At the time of sacrifice, blood was obtained by cardiac puncture from MC38 tumor growing animals and collected into Greiner Bio-One MiniCollect Capillary Blood collection system tubes. Tubes were centrifuged as per manufacturer's instructions to separate serum from blood cells. The serum was frozen at […] and subsequently used, to obtain a comprehensive serum chemistry panel, develop by IDEXX Laboratories (Westbrook, Me.), for use in the UCLA Division of Laboratory Animal Medicine (DLAM).

N#Cc1ccc2[nH]c(O)c(-c3ccc(CN4CCOCC4)cn3)c2c1 [AZD1080]
IC50 (GSK3): 31 nM
% of CD8/PD-1+ cells in the tumor digests [1]: did not impact
number of tumor-free animals at time of sacrifice (out of 15) (MC38 colon cancer; MC38, three administrations, n=15 per group): 3/15
tumor growth inhibition in MC38 (significance vs saline) (MC38 colon cancer; three administrations every three days, sAZD1080 5 mg/kg IV, free AZD1080 5 mg/kg IP, SB415286 8 mg/kg IP, anti-PD-1 4 mg/kg IP, n=15): no significant effect on tumor growth inhibition
albumin:globulin ratio [2]: depress
blood chemistry panel (overall) [2]: more variation in blood chemistry
total bilirubin and BUN levels [2]: reductions
